Source: PMC7444556, “MrpH, a new class of metal-binding adhesin, requires zinc to mediate biofilm formation” (PLoS Pathogens, 2020)
Where a name gives a salt, the structure may show the parent alone. Read-outs that look alike come from different tables or passages of the source.

Key:
Type in all cases: binding
[1] = molecular target: T1, MrpH159 (MrpHntd) (Proteus mirabilis, UniProt B4EUK6); settings: 10 mM ligand, 10 uM protein, 24 mM NaCl, 6 mM HEPES pH 7.5, reference storage buffer 65.2±0.30 °C
T1 construct: gene mrpH; pEXP5-CT/TOPO (His-tag, Ni-NTA, no cleavage told); expressed in E. coli BL21-AI
T1 sequence (B4EUK6 entry or part of it): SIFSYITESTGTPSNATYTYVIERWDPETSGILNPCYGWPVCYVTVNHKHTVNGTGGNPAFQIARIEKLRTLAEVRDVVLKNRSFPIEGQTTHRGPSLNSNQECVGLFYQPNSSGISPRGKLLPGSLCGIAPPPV
Description: thermal shift assay (SYPRO Orange) on MrpH159 (MrpHntd)

[2] = molecular target: T1, MrpH159 (MrpHntd); assay: X-ray crystal structure, […] Å; settings: side chain carboxyl ligates Zn2+; ligand not added, picked up during expression, assigned from electron density
[3] = molecular target: T2, MrpH153 (MrpHntd) (Proteus mirabilis, UniProt B4EUK6); assay: thermal shift assay; settings: 10 mM ammonium tartrate pH 7.0, 100 mM NaCl; reference 66.7 ± 0.6 °C in 10 mM HEPES pH 7.5
T2 construct: gene mrpH; C-terminal His-tag kept; expressed in E. coli
T2 sequence (B4EUK6 entry or part of it): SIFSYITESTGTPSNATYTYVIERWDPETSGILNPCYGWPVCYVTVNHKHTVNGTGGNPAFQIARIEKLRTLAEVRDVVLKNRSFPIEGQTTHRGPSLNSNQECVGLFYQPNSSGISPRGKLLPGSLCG

SMILES | <Tm> (°C)^a [1] | <Tm> (°C)^a ([1]; citrate pH not stated) | X-ray crystal structure, 1.75 Å [2] | Tm [3]
CC(=O)O [Sodium acetate] | 76.3±0.56 °C |  |  | 
O=C(O)CC(O)(CC(=O)O)C(=O)O [Sodium citrate] |  | 73.3±0.64 °C |  | 
O=CO [Sodium formate] | 68.4±0.75 °C |  |  | 
N[C@@H](CCC(=O)O)C(=O)O [glutamic acid] | 73.1±0.21 °C |  | we have assigned glutamic acid as the bound ligand in the MrpH159 structure | 
O=C(O)C(O)C(O)C(=O)O (stereo not shown) [tartrate] | 80.1±0.70 °C |  |  | 78.5 ± 0.1 °C
